Peptide text beside a SMILES is read from it. * marks the point of attachment. Cbz = O=C(OCc1ccccc1)*
Experiments:
[1] = target: T1, CAPN2 (Homo sapiens, UniProt P17655); experiment: Activity based probe (ABP) off-rate assay of CAPN2 inhibitors, SDS-PAGE readout; format: binding; conditions: t1/2=0.693/k from first order decay fit; complex diluted ten-fold into 10 uM ABP; time points 0-24 hours
T1 sequence (P17655 20-700 limits assumed): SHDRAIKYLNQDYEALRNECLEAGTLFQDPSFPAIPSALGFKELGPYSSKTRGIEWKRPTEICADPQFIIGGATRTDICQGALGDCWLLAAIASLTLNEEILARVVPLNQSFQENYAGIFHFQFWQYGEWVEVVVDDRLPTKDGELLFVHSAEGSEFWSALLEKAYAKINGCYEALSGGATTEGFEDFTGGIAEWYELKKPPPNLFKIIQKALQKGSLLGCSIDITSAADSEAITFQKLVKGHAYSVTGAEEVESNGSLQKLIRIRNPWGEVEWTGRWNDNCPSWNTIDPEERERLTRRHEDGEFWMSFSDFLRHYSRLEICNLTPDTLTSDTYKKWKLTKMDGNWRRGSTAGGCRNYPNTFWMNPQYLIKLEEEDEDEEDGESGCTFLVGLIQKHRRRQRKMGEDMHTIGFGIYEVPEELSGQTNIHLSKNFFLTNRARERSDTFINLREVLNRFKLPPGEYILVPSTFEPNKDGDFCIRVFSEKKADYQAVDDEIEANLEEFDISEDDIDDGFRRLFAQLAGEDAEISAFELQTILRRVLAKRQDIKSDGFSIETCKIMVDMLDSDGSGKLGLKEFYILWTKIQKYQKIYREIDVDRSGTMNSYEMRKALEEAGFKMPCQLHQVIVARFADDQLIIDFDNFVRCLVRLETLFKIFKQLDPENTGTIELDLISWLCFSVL
T1 sequence (P04632 1-268 partner): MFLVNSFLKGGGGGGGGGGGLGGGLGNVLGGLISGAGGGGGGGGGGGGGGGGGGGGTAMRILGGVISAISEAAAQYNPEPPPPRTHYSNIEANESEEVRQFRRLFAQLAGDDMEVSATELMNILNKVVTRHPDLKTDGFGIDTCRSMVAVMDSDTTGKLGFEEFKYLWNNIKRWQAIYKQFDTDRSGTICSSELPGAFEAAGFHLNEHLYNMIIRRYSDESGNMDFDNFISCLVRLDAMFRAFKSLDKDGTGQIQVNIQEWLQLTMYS
Excerpt: FIG. 2: Dissociation of Compound 10 from calpain 2 (CAPN2). Complexes of Compound 10 with CAPN2 were generated, followed by dilution into an excess of Compound 29 (a probe for unbound CAPN2). Samples were taken at the time points (lanes 1-6 for 0, 1, 2, 4, 7 and 24 hr respectively) and analyzed by gel electrophoresis to determine the amount of Compound 29 probe incorporation. Lanes 7 and 8 reflect negative and positive controls for probe labeling, respectively. The dissociation rate and half-life for the Compound 10-CAPN2 complex was then calculated.
A fluorescently labeled irreversible activity based probe (ABP) was used to measure off rates of CAPN2 inhibitors as follows. The ABP molecule contains a fluoro-methyl ketone warhead that irreversibly reacts with the active site cysteine nucleophile of CAPN enzymes. ABP is also labeled with the Alexa 647 fluorophore which allows for sensitive quantitation of the CAPN2.ABP adduct.
The assay is typically performed by pre-incubating 2 uM CAPN2 with […] test inhibitor for 30 minutes in assay buffer (50 mM Tris-HCl, 100 mM NaCl, 2 mM CaCl2, 1 mM DTT, 0.02% Brij-35, pH7.4). This incubation mixture (containing the CAPN2.inhibitor complex) is diluted ten-fold into the same assay buffer containing 10 uM ABP. This is time zero at which an aliquot is immediately withdrawn and quenched by adding denaturing SDS-PAGE loading buffer and heating at 95° C. for 5 minutes. Additional aliquots are typically withdrawn and quenched at time points of 0.5, 1, 2, 4, 7, 24 hours. Quenched samples are stored frozen at −80° C. until SDS-PAGE analysis.
For a given test inhibitor, all time points are run on the same gel with the following two control samples. An assay minimum control is prepared by pre-incubating 2 uM CAPN2 in assay buffer for 1 hour. The incubation mixture is diluted, ten-fold into the same assay buffer containing 10 uM ABP, reacted for 30 minutes and quenched. After the initial 1 hour incubation, the CAPN2 enzyme is autolytically degraded and should generate little to no signal. An assay maximum control is prepared by adding 10 uM ABP to 0.2 uM CAPN2 in assay buffer and incubating for 30 minutes and quenching.
After SDS-PAGE, the gel is scanned using a LAS4000 ImageQuant platform to quantify the Alexa 647 intensity at ˜75 kDa (molecular weight of full length activated CAPN2). The minimum and maximum controls on each gel are used to calculate percentage of test compound bound at each time point. […] Using the equation t1/2=0.693/k, the off rate (k) is converted to and reported as CAPN2.inhibitor complex half-life (t1/2).

[2] = target: T2, CatK (Homo sapiens, UniProt P43235); experiment: Dilution of enzyme-inhibitor complex into substrate, reactivation over time (FIG. 1); format: biochemical; conditions: compared to unbound CatK control
T2 sequence (P43235 115-329): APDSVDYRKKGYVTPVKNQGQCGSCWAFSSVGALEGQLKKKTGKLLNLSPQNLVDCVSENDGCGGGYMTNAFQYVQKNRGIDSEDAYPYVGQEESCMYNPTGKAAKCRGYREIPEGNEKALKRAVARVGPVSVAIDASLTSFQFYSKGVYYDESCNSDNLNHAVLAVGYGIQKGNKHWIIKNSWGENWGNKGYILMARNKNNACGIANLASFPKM
Excerpt: (§1) FIG. 1: Dissociation of Compound 10 from calpain 2 (CAPN2). Complexes of Compound 10 with either CatK or CAPN2 were generated, followed by dilution into substrate-containing assay wells to initiate data collection. Reactivation of the target enzymes due to dissociation of the enzyme-inhibitor complexes was observed as a function of time. […] CAPN2 control (upper dashed line). Thus, inhibition of CAPN2 by Compound 10 is retained even in the absence of excess Compound 10. Further, this effect is selective and provides a basis for specific action of Compound 10 against CAPN2.

[3] = target: T3, calpain 2 (CAPN2) (Homo sapiens, UniProt P17655); experiment: as above; format: biochemical; conditions: relative to unbound CAPN2 control; absence of excess compound
T3 sequence (P17655 20-700 limits assumed): T1 sequence (P17655 20-700 limits assumed)
T3 sequence (P04632 1-268 partner): T1 sequence (P04632 1-268 partner)
Excerpt: as §1

SMILES	Half-life of Compound-CAPN2 Complex [1]	Reactivation of CatK after dilution of the CatK-compound complex [2]	Retention of CAPN2 inhibition after dilution of the complex [3]
NC(=O)C(=O)C(Cc1ccccc1)NC(=O)c1nsnc1-c1cccc(F)c1 (centres unmarked) [Compound 19]	2.8 h	–	–
O=C(O)C(=O)C(Cc1ccccc1)NC(=O)c1nsnc1-c1ccccc1 (centres unmarked) [Compound 33]	1.87 h	–	–
NC(=O)C(=O)C(Cc1ccccc1)NC(=O)c1nsnc1-c1ccccn1 (centres unmarked) [Compound 32]	2.32 h	–	–
NC(=O)C(=O)C(Cc1ccccc1)NC(=O)c1cn(C(F)F)nc1-c1cccc2cnccc12 (centres unmarked) [Compound 1]	2.8 h	–	–
CC(C)[C@H](NC(=O)OCc1ccccc1)C(=O)N[C@H](C=O)Cc1ccccc1 [Compound 28] (Cbz-Val-Phe-aldehyde)	3 h	–	–
Cc1nc(-c2cccc(F)c2)c(C(=O)NC(Cc2ccccc2)C(=O)C(N)=O)o1 (centres unmarked) [Compound 11]	3.53 h	–	–
Cc1cncc(-c2nn(C(F)F)cc2C(=O)NC(Cc2ccccc2)C(=O)C(N)=O)c1 (centres unmarked) [Compound 39]	0.533 h	–	–
Cc1nc(-c2ccccc2F)c(C(=O)NC(Cc2ccccc2)C(=O)C(=O)O)o1 (centres unmarked) [Compound 40]	0.467 h	–	–
CC(C)[C@@H](NC(=O)CCCNC(=O)CCCCCC1(C)C(/C=C/C=C/C=C2/N(CCCS(=O)(=O)O)c3ccccc3C2(C)C)=[N+](CCCS(=O)(=O)O)c2ccc(S(=O)(=O)O)cc21)C(=O)NC(Cc1ccccc1)C(=O)CF (some centres unmarked) [Compound 29]	7 h	–	–
NC(=O)C(=O)[C@H](Cc1ccccc1)NC(=O)c1cnoc1-c1ccccc1 [Compound 25]	1.6 h	–	–
Cn1cc(C(=O)NC(Cc2ccccc2)C(=O)C(N)=O)c(-c2cccc3c2OC(F)(F)O3)n1 (centres unmarked) [Compound 41]	0.45 h	–	–
CCN(CC)Cc1ccc(/C=C/c2ccccc2C(=O)NC(Cc2ccccc2)C(=O)C(N)=O)cc1 (centres unmarked) [Compound 27]	0.9 h	–	–
NC(=O)C(=O)C(Cc1ccccc1)NC(=O)c1nsnc1-c1cnccn1 (centres unmarked) [Compound 35]	1.03 h	–	–
Cn1cc(C(=O)NC(Cc2ccccc2)C(=O)C(N)=O)c(-c2cccc3oc(=O)[nH]c23)n1 (centres unmarked) [Compound 38]	0.65 h	–	–
Cn1cc(C(=O)NC(Cc2ccccc2)C(=O)C(N)=O)c(-c2cccc3cn[nH]c23)n1 (centres unmarked) [Compound 37]	0.65 h	–	–
Cn1cc(C(=O)N[C@@H](Cc2ccccc2)C(=O)C(N)=O)c(-c2ccccc2)n1 [Compound 26]	0.483 h	–	–
Cc1nc(-c2ccccc2)c(C(=O)NC(Cc2ccccc2)C(=O)C(N)=O)o1 (centres unmarked) [Compound 14]	5.4 h	–	–
O=C(NC1CC1)C(=O)C(Cc1ccccc1)NC(=O)c1nsnc1-c1ccccc1 (centres unmarked) [Compound 6]	0.383 h	–	–
NC(=O)C(=O)C(Cc1ccccc1)NC(=O)c1nsnc1-c1ccccc1 (centres unmarked) [Compound 24]	6.6 h	–	–
CC(C)C(NC(=O)OCc1ccccc1)C(=O)NC(Cc1ccccc1)C(=O)C(N)=O (centres unmarked) [Compound 30]	17.77 h	–	–
Cc1cc(C(=O)N[C@@H](Cc2ccccc2)C(=O)C(N)=O)n(-c2ccccc2)n1 [Compound 21]	2.7 h	–	–
Cn1cc(C(=O)NC(Cc2ccccc2)C(=O)C(N)=O)c(-c2ccccc2F)n1 (centres unmarked) [Compound 16]	0.867 h	–	–

Second part, the compound after the results:

Half-life of Compound-CAPN2 Complex [1]	Reactivation of CatK after dilution of the CatK-compound complex [2]	Retention of CAPN2 inhibition after dilution of the complex [3]	SMILES
5.5 h	–	–	NC(=O)C(=O)C(Cc1ccccc1)NC(=O)c1nsnc1-c1ccccc1F (centres unmarked) [Compound 18]
1.27 h	–	–	NC(=O)C(=O)C(Cc1ccccc1)NC(=O)c1nsnc1-c1ccncn1 (centres unmarked) [Compound 34]
9.63 h	–	–	NC(=O)C(=O)C(Cc1ccccc1)NC(=O)c1nsnc1-c1cccc2c1OC(F)(F)O2 (centres unmarked) [Compound 2]
2.4 h	–	–	NC(=O)C(=O)C(Cc1ccccc1)NC(=O)c1c(C(F)(F)F)ccc(Cl)c1F (centres unmarked) [Compound 8]
2.1 h	–	–	NC(=O)C(=O)C(Cc1ccccc1)NC(=O)c1cn(C(F)F)nc1-c1ccccc1 (centres unmarked) [Compound 17]
0.333 h	–	–	NC(=O)C(=O)C(Cc1ccccc1)NC(=O)c1cn(C2CC2)nc1-c1ccccc1 (centres unmarked) [Compound 12]
4.87 h	–	–	NC(=O)C(=O)C(Cc1ccccc1)NC(=O)c1nsnc1-c1cccc2c1OC(F)(F)O2 (centres unmarked) [Compound 31]
0.75 h	–	–	Cc1c(F)cccc1-c1nsnc1C(=O)NC(Cc1ccccc1)C(=O)C(N)=O (centres unmarked) [Compound 36]
1 h	–	–	CC[C@H](NC(=O)[C@H](CC(C)C)NC(=O)OCc1ccccc1)C(=O)C(=O)NCc1cc(OC)cc(OC)c1 [Compound 23]
0.467 h	–	–	Cc1cc(C(=O)NC(Cc2ccccc2)C(=O)C(N)=O)n(-c2ccccn2)n1 (centres unmarked) [Compound 5]
0.083 h	–	–	O=C(NC1CC1)C(=O)C(Cc1ccccc1)NC(=O)[C@H]1CCC(=O)N1Cc1ccccc1 (some centres unmarked) [Compound 9]
0.633 h	–	–	Cn1cc(C(=O)NC(Cc2ccccc2)C(=O)C(N)=O)c(-c2cccc(F)c2)n1 (centres unmarked) [Compound 13]
1.05 h	–	–	O=CC(Cc1ccccc1)NC(=O)c1nsnc1-c1ccccc1 (centres unmarked) [Compound 7]
2.7 h	almost an immediate reactivation	inhibition is retained	Cc1nc(-c2ccccc2F)c(C(=O)NC(Cc2ccccc2)C(=O)C(N)=O)o1 (centres unmarked) [Compound 10]
